PMC5526996, “Structural basis for dolichylphosphate mannose biosynthesis” (Nature Communications, 2017)

Columns and labels:
PfDPMS [1] = target: T1, PfDPMS (Pyrococcus furiosus, UniProt Q8U4M3); assay: thermal shift, heat precipitation with SDS-PAGE densitometry; format: binding; details: detergent-solubilised; compared with no Dol-P
T1 construct: gene PF0058; E. coli C41(DE3) membranes, DDM or LDAO solubilised, mainly monomer
T1 sequence (Q8U4M3 1-352): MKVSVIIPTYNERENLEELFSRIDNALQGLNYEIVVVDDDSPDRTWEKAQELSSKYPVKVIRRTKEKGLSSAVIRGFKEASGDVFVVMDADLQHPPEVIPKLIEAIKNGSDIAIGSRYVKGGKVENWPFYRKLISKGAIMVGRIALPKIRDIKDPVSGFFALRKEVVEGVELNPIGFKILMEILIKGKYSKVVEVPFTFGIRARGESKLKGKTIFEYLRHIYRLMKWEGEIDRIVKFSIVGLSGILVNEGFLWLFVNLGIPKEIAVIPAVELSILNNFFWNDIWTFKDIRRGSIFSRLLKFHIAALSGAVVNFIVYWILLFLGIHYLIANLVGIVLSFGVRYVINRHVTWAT

PfDPMS [2] = target: T1, PfDPMS; assay: X-ray crystallography; format: binding; details: formed in reaction mixture at 60 °C; GDP bound, metal departed
PfDPMS [3] = target: T1, PfDPMS; assay: phosphate-coupled glycosyltransferase assay (malachite green); format: biochemical; details: 0.23 mM donor, Dol-P acceptor, 75 °C, pH 7.5

Compound: CC(C)=CCC/C(C)=C/CC/C(C)=C/CC/C(C)=C\CC/C(C)=C\CC/C(C)=C\CC/C(C)=C\CC/C(C)=C\CC/C(C)=C\CC/C(C)=C\CC[C@H](C)CCOP(=O)(O)O [Dol55-P]
- ΔTm (PfDPMS [1]): 13.3 °C

Compound: CC(C)=CCC/C(C)=C/CC/C(C)=C/CC/C(C)=C\CC/C(C)=C\CC/C(C)=C\CC/C(C)=C\CC/C(C)=C\CC/C(C)=C\CC/C(C)=C\CC[C@H](C)CCOP(=O)(O)O[C@@H]1O[C@H](CO)[C@@H](O)[C@H](O)[C@@H]1O [Dol55-P-Man]
- X-ray crystallography (PfDPMS [2]): 5MM1 (PfDPMS•GDP•Dol55-P-Man)

Compound: Nc1nc2c(ncn2[C@@H]2O[C@H](COP(=O)(O)OP(=O)(O)O[C@H]3O[C@H](CO)[C@@H](O)[C@H](O)[C@H]3O)[C@@H](O)[C@H]2O)c(=O)[nH]1 [GDP-Glc]
- phosphate-coupled glycosyltransferase assay (malachite green) (PfDPMS [3]): four-fold higher product formation with GDP-Man compared with GDP-Glc
